The text below walks through data of BindingDB's records for PubMed 6248635 (Stanford University, 1980).

Experiment [1] addresses Beta-arrestin-1 (Oryctolagus cuniculus, UniProt Q95223).
Experiment [2] has as its target Opioid receptor delta 1 (Bos taurus, UniProt F1N083).
Experiment [3] addresses Delta-type opioid receptor (Mus musculus, UniProt P32300).

Where “and” joins values, the source holds several entries; their conditions need not be identical. Equal entries are not always repeated.

By Ki is commonly meant the dissociation constant of the complex between target and ligand, obtained from inhibition or displacement. Low readings indicate higher affinity, high ones lower affinity.

Beta-arrestin-1, sequence (Q95223 whole entry): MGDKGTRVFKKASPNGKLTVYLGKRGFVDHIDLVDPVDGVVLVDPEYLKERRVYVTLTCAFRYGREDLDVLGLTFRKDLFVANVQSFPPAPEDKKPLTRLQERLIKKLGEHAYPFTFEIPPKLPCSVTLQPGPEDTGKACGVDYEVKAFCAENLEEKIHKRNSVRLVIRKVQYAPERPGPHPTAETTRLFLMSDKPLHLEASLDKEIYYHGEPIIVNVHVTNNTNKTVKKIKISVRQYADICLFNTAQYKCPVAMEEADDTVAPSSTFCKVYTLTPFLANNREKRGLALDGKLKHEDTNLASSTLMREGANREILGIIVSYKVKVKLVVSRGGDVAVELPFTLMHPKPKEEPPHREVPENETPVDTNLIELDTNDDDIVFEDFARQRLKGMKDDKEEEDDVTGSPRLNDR
Opioid receptor delta 1, sequence (F1N083 whole entry): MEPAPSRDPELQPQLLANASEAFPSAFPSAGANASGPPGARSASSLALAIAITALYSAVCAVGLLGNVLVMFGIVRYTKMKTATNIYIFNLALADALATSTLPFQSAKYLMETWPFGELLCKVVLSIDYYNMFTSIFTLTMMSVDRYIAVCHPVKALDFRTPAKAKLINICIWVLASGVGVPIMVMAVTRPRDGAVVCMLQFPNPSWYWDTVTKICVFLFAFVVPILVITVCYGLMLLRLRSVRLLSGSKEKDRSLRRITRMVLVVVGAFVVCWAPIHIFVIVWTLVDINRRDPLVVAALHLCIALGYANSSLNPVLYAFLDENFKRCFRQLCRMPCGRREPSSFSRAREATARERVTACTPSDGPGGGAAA
Delta-type opioid receptor, sequence (P32300 whole entry): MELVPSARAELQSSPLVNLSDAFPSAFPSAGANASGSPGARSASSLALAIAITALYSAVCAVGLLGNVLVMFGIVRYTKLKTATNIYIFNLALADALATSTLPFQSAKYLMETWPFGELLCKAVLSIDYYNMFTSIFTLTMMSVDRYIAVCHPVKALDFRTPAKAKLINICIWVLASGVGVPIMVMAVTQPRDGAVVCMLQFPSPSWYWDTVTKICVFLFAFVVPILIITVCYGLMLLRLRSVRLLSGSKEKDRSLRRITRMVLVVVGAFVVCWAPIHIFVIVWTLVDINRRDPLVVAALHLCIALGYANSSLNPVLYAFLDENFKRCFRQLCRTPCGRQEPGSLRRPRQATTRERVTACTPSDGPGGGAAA

On to `CC(C)C[C@H](NC(=O)[C@H](Cc1ccccc1)NC(=O)CNC(=O)[C@@H](C)NC(=O)[C@@H](N)Cc1ccc(O)cc1)C(=O)O` [DALLE], for which the Ki in experiment [1] was 3.6 nM; in experiment [2], 1.8 nM and 7.4 nM.

As to `CN1CC[C@]23c4c5ccc(O)c4O[C@H]2[C@@H](O)CCC3[C@H]1C5` (stereo partly drawn) [DIHYDROMORPHINE], the inhibitory constant (Ki) in experiment [3] is 127 nM; in experiment [2], 38.1 nM and 35.6 nM.

`C=CCN1CC[C@]23c4c5ccc(O)c4O[C@H]2C(=O)CC[C@@]3(O)[C@H]1C5` [[17-(2,3-3H-2-propenyl)]-4,5a-epoxy-3,14-dihydroxymorphinan-6-one] displayed an inhibitory constant (Ki) in experiment [1] of 67.4 nM.

In the case of `CC(C)C[C@@H](NC(=O)[C@H](Cc1ccccc1)NC(=O)CNC(=O)[C@@H](C)NC(=O)[C@@H](N)Cc1ccc(O)cc1)C(=O)O` [[D-Ala2-D-Leu5]enkephalin], the inhibition constant (Ki) in experiment [2] is 1.8 nM and 9.7 nM.

Take “H-YGGFMTSEKSQTPLVTLFKNAIVKNAHKKGQ-OH [Beta-Endorphin]”: the Ki is 21 nM in experiment [1]; 14 nM and 58.1 nM in experiment [2].
